This is an account of results in PMC6278658, “Two New Altenusin/Thiazole Hybrids and a New Benzothiazole Derivative from the Marine Sponge-Derived Fungus Alternaria sp. SCSIOS02F49” (Molecules, 2018).

Bounds are passed on as bounds.

Assay [1] in a line: DPPH radical scavenging activity. The following applies: for IC50: DPPH 0.1 mM in ethanol, 30 min at room temperature in the dark, absorbance at 517 nm, triplicates, read-out: DPPH Free Radical Scavenging Activity (IC50); for DPPH free-radical-scavenging activity compared with BHT: comparison with positive control BHT. The method, then: The DPPH (2,2-diphenyl-1-picrylhydrazyl) radical scavenging ability of the sample was conducted based on the method described by Kumagai et al. with minor modifications. The reaction mixture was with DPPH (0.1 mM, dissolved in ethanol) and various concentrations of sample in equal volumes, which was incubated at room temperature for 30 min in the dark. The absorbance of the mixture was measured at 517 nm using UV (UV-2600, UNICO Instrument Co. Ltd., Shanghai, China). The final concentrations of each compound in the wells were confined as 1000, 333, 111, 37.0, 12.3, 4.11, 1.37, and 0.46 μM. The ethanol and butylated hydroxytoluene (BHT), instead of samples, were used for a blank and positive control, respectively. Each assay was carried out in triplicates. IC50, the concentration of elimination of 50% DPPH radical scavenging activity, was measured by non-liner regression.

Assay [2] concerns the target T1, Human recombinant COX-2 enzyme (Homo sapiens, UniProt P35354).
T1 construct: purchased Cayman #700100
T1 sequence (P35354 18-604): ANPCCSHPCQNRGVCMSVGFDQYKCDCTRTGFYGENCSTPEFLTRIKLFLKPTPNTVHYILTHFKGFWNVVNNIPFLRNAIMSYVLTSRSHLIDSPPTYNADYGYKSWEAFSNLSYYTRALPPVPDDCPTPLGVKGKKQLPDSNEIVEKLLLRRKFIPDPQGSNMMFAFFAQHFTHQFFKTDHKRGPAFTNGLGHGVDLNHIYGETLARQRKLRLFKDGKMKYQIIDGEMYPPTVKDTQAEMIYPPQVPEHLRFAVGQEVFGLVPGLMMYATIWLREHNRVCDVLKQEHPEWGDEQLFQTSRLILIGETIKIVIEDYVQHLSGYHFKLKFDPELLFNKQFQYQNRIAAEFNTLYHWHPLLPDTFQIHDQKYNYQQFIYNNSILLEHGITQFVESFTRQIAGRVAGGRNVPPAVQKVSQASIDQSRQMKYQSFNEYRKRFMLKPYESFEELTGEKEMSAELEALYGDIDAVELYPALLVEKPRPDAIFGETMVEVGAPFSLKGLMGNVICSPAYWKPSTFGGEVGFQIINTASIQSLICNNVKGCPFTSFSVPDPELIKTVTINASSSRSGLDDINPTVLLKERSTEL
The assay can be described thus: COX-2 inhibitory activity assay (Cayman COX Fluorescent Inhibitor Screening Assay Kit). Conditions: 15 min pre-incubation, arachidonic acid substrate, fluorescence 530/595 nm, triplicates. Type of assay: biochemical. How it is done:
The COX-2 inhibitory activity assay of sample was conducted according to a previously reported method. […] Human recombinant COX-2 enzyme was pre-incubated with inhibitors for 15 min at normal temperature, followed by the addition of heme and fluorometric substrate and incubation for another 15 min at normal temperature. The reaction was started by the addition of arachidonic acid and allowed to proceed for 2 min. […] Each assay was carried out in triplicates. IC50, was measured by non-liner regression.

Details of assay [3]: method as in PMID 22061662. Conditions: previous study; cited from earlier work.

For `Cc1cc(C(C)(C)C)c(O)c(C(C)(C)C)c1` [BHT, butylated hydroxytoluene, reference compound], in assay [1], the IC50 stood at 170.3 ± 0.06 µM.

As to `COc1cc(O)c(C(=O)O)c(-c2c(C)cc(O)c3ncsc23)c1` [Compound 1, Altenusinoides A], the IC50 in assay [2] was > 30 µM; in assay [1], > 1000 µM.

Take `COc1cc(O)c(C(=O)O)c(-c2cc(O)c3ncsc3c2C)c1` [Compound 2, altenusinoides B]: the IC50 was > 30 µM in assay [2] and > 1000 µM in assay [1].

Regarding `COC(=O)Cc1cc(O)cc2scnc12` [Compound 3, methyl 2-(6-hydroxybenzothiazol-4-yl) acetate], the IC50 in assay [2] is > 30 µM; in assay [1] it was > 1000 µM.

`COc1cc(O)c(C(=O)O)c(-c2cc(O)c(O)cc2C)c1` [Compound 4, Altenusin]: the “radical scavenging activity in comparison with vitamin C” value in assay [3] is “strong radical scavenging activity”. The concentration for half-maximal inhibition (IC50) in assay [2] was > 30 µM. In assay [1], the IC50 was 10.7 ± 0.09 µM and the “DPPH free-radical-scavenging activity compared with BHT” value is “higher DPPH free-radical-scavenging activities than BHT”.

With `COc1cc(O)cc(-c2cc(O)c(O)cc2C)c1` [Compound 5, 5′-methoxy-6-methyl-biphenyl-3,4,3′-triol], the “radical scavenging activity in comparison with vitamin C” value in assay [3] was “strong radical scavenging activity”. Moreover, the IC50 in assay [2] came to 9.5 ± 0.08 µM. In assay [1], the IC50 turned out to be 100.6 ± 0.025 µM and the “DPPH free-radical-scavenging activity compared with BHT” value is listed as “higher DPPH free-radical-scavenging activities than BHT”.

With `COc1cc(O)cc(C2=C(C)C[C@H](O)C2=O)c1` [Compound 6, (S)-alternariphent A1], the IC50 in assay [2] is > 30 µM; in assay [1] it was > 1000 µM.
